ChEMBL document CHEMBL2073944 (Eur J Pharmacol, 2003)
Where a name gives a salt, the structure may show the parent alone.

Experiments:
Type in all cases: functional, cell-based
[1] = target: T1, Solute carrier family 22 member 11 (Homo sapiens, UniProt Q9NSA0); experiment: TP_TRANSPORTER: inhibition of E1S uptake (E1S: 5 uM, indoxyl sulfate:500 uM) in S2 cells expressing human-OAT4
T1 sequence (Q9NSA0 whole entry): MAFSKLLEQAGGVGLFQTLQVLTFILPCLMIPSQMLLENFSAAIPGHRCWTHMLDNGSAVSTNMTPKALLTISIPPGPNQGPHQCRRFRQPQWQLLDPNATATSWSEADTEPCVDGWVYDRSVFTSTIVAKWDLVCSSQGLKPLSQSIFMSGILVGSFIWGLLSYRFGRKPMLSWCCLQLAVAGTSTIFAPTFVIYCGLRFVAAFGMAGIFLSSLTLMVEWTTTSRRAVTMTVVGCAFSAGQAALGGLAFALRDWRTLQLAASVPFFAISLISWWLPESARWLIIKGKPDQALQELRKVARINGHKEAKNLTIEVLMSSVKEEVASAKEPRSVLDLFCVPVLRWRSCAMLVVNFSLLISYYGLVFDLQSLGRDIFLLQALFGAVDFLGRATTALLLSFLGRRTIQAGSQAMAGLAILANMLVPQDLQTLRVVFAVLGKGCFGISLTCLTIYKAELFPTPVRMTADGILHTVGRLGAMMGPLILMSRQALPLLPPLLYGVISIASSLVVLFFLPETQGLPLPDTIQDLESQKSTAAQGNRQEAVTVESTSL

[2] = target: T2, Organic anion transporter 3 (Homo sapiens, UniProt Q8TCC7); experiment: TP_TRANSPORTER: uptake in OAT3-S2 cells; conditions: mouse
T2 sequence (Q8TCC7 whole entry): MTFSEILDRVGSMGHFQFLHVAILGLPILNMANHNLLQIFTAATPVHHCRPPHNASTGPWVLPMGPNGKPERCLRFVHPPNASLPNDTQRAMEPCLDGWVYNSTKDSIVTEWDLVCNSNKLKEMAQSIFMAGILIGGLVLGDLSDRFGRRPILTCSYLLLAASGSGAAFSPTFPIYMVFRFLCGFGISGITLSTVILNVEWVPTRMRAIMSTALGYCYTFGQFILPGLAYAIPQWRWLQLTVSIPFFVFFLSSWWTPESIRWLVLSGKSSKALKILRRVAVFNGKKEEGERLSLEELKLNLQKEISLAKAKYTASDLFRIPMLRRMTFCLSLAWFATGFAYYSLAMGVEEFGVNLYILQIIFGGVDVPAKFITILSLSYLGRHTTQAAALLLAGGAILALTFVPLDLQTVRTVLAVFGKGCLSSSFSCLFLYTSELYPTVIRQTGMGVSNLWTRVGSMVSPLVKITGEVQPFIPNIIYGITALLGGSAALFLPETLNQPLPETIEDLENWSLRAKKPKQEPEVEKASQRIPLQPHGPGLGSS

[3] = target: T1, Solute carrier family 22 member 11; experiment: TP_TRANSPORTER: uptake&inhibition of estrone sulfate in OAT4-S2 cells
[4] = target: T1, Solute carrier family 22 member 11; experiment: TP_TRANSPORTER: uptake in OAT4-S2 cells; conditions: mouse

Ki [1]: 181 µM | Activity [2]: substrate [] | Ki [3]: 181 µM | Activity [4]: substrate []
SMILES: O=S(=O)(O)Oc1c[nH]c2ccccc12 [INDOXYL SULFATE]
